Test results from PMC4494766 (Monatshefte Fur Chemie, 2011).
≈ marks a conversion by molar mass, not a printed value.

These compounds were tested on M. tuberculosis wild-type strain sp. 210 resistant to PAS, INH, ETB and RFP (assay: Tuberculostatic activity, test-tube successive dilution in Youmans' medium). Conditions: Mycobacterium tuberculosis.
Type: cell-based

Structure (SMILES)	MIC [µg/mL]
CSC(=NNC(=O)c1cccc(O)c1)SC [Compound 9, Dimethyl 3-hydroxybenzoylcarbonohydrazonodithioate]	25 (≈ 97.5 µM)
CSC(=NNC(=O)c1ccc(Cl)c(Cl)c1)SC [Compound 5, Dimethyl 3,4-dichlorobenzoylcarbonohydrazonodithioate]	12.5 (≈ 40.4 µM)
CSC(=NNC(=O)c1ccc(Cl)cc1)SC [Compound 3, Dimethyl 4-chlorobenzoylcarbonohydrazonodithioate]	25 (≈ 91 µM)
CSC(=NNC(=O)c1ccc(O)cc1)SC [Compound 10, Dimethyl 4-hydroxybenzoylcarbonohydrazonodithioate]	25 (≈ 97.5 µM)
COc1cc(C(=O)NN=C(SC)SC)cc(OC)c1OC [Compound 12, Dimethyl 3,4,5-trimethoxybenzoylcarbonohydrazonodithioate]	50 (≈ 151 µM)
CSC(=NNC(=O)c1ccccc1[N+](=O)[O-])SC [Compound 6, Dimethyl 2-nitrobenzoylcarbonohydrazonodithioate]	50 (≈ 175 µM)
COc1ccc(C(=O)NN=C(SC)SC)cc1 [Compound 11, Dimethyl 4-methoxybenzoylcarbonohydrazonodithioate]	25 (≈ 92.5 µM)
CSC(=NNC(=O)c1ccccc1O)SC [Compound 8, Dimethyl 2-hydroxybenzoylcarbonohydrazonodithioate]	25 (≈ 97.5 µM)
CSC(=NNC(=O)c1ccccc1Cl)SC [Compound 2, Dimethyl 2-chlorobenzoylcarbonohydrazonodithioate]	50 (≈ 182 µM)
CSC(=NNC(=O)c1ccc(Cl)cc1Cl)SC [Compound 4, Dimethyl 2,4-dichlorobenzoylcarbonohydrazonodithioate]	50 (≈ 162 µM)
COc1ccc(CC(=O)NN=C(SC)SC)cc1OC [Compound 13, Dimethyl 2-(3,4-dimethoxyphenyl)acetylcarbonohydrazonodithioate]	50 (≈ 159 µM)
